Patent publication US20110002855A1 (NEUROGEN CORPORATION, priority 2007, published 2011)

Molecular target: T1, chimeric human H3 receptor (Homo sapiens, UniProt Q9Y5N1)
T1 construct: made in house; host or cells: Sf9 insect cells (baculovirus); P2 membrane preparation
Assay: Chimeric human H3 receptor screening GTP binding assay at 4 μM (Example 8)
Assay type: biochemical
Settings: test compound 4 μM, 1 μM histamine, P2 membranes of Sf9 cells; read-out: % (percent inhibition of agonist-induced GTP-gammaS binding to H3)
Method: This Example illustrates a representative screening assay for evaluating inhibition of histamine-stimulated GTP-gamma^35S binding. Such GTP binding activity can be used to identify H3 antagonists and inverse agonists. A compound analyzed in this assay is referred to herein as a “test compound,” and the initial identification of antagonists and inverse agonists is performed using a test compound concentration of 4 μM.
Four independent baculoviral stocks (one directing the expression of the chimeric human H3 receptor and three directing the expression of each of the three subunits of a heterotrimeric G-protein) are used to infect a culture of Sf9 cells as described above. P2 membranes are prepared as described above, and are resuspended by Dounce homogenization (tight pestle) in GTP binding assay buffer (50 mM Tris pH 7.4, 120 mM NaCl, 5 mM MgCl2, 2 mM EGTA, 1 mg/ml BSA, 0.2 mg/ml bacitracin, 0.02 mg/ml aprotinin, 0.01 mg/ml saponin, 10 μM GDP) and added to assay tubes at a concentration of 35 μg protein/reaction tube. Non-radiolabeled test compounds are added to separate reactions at a concentration of 4 μM along with 1 μM histamine (agonist). Reactions are initiated by the addition of 125 pM GTP-gamma^35S with a final assay volume of 0.20 ml.
After a 60-min incubation at room temperature, reactions are terminated by vacuum filtration over GF/C filters (pre-soaked in 50 mM Tris pH 7.4, 120 mM NaCl plus 0.1% BSA) followed by washing with ice-cold buffer (50 mM Tris pH 7.4, 120 mM NaCl). The amount of receptor-bound (and thereby membrane-bound) GTP-gamma^35S is determined by measuring the bound radioactivity, preferably by liquid scintillation spectrometry of the washed filters. Non-specific binding is determined using 10 uM GTP-gammaS and typically represents less than 5 percent of total binding. After subtraction of non-specific binding, data is expressed as percent inhibition of 1 μM histamine signal.
Neutral antagonists are those test compounds that reduce the histamine-stimulated GTP binding activity towards, but not below, baseline levels. In contrast, in the absence of added histamine, inverse agonists reduce the GTP binding activity of the receptor-containing membranes below baseline. Any test compound that elevates GTP binding activity above baseline in the absence of added histamine in this assay is defined as having agonist activity.

T1 sequence (Q9Y5N1 with tags, fused parts or gaps): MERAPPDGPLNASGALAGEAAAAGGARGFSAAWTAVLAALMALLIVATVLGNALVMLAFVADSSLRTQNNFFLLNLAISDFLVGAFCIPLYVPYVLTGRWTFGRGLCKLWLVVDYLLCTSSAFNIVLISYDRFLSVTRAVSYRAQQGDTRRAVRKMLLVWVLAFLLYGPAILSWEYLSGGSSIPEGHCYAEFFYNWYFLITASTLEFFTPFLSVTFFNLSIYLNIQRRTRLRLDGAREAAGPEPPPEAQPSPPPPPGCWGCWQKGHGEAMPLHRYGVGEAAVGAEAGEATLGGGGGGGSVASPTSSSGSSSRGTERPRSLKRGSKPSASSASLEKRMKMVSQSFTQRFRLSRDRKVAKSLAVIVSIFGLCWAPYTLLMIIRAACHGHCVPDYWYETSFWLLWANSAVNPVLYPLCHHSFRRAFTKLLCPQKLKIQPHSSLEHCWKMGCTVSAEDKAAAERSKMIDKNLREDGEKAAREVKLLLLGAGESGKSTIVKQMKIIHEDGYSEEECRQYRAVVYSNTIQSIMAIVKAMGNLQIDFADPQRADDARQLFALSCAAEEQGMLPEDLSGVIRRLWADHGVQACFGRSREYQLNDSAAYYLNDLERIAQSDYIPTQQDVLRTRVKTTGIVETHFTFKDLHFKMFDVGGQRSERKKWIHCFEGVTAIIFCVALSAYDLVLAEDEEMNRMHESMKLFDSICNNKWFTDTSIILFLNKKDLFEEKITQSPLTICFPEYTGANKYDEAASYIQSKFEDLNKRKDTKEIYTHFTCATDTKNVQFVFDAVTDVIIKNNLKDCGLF

Row | Compound | inhibition at 4 µM
1 | CC1CCCCN1C1CCN(C(=O)CN2CCc3c([nH]c4ccccc34)C2)CC1 (stereo not drawn) [Compound 34, 2-[2-(2-Methyl-1,4′-bipiperidin-1′-yl)-2-oxoethyl]-2,3,4,9-tetrahydro-1H-beta-carboline] | ≥ 90%
2 | C=CCN1CCN(C(=O)CN2CCc3c([nH]c4ccccc34)C2)CC1 [Compound 35, 2-[2-(4-Allylpiperazin-1-yl)-2-oxoethyl]-2,3,4,9-tetrahydro-1H-beta-carboline] | ≥ 90%
3 | CC(C)N1CCCN(C(=O)CN2CCc3c([nH]c4ccccc34)C2)CC1 [Compound 36, 2-[2-(4-Isopropyl-1,4-diazepan-1-yl)-2-oxoethyl]-2,3,4,9-tetrahydro-1H-beta-carboline] | ≥ 90%
4 | O=C(CN1CCc2c([nH]c3ccccc23)C1)N1CCCN(C2CCC2)CC1 [Compound 37, 2-[2-(4-Cyclobutyl-1,4-diazepan-1-yl)-2-oxoethyl]-2,3,4,9-tetrahydro-1H-beta-carboline] | ≥ 90%
5 | CC1CCCC1N1CCN(C(=O)CN2CCc3c([nH]c4ccccc34)C2)CC1 (stereo not drawn) [Compound 38, 2-{2-[4-(2-Methylcyclopentyl)piperazin-l-yl]-2-oxoethyl}-2,3,4,9-tetrahydro-1H-beta-carboline] | ≥ 90%
6 | O=C(CN1CCc2c([nH]c3ccccc23)C1)N1CCC(N2CCCC2)C1 (stereo not drawn) [Compound 39, 2-[2-(1,3′-Bipyrrolidin-1′-yl)-2-oxoethyl]-2,3,4,9-tetrahydro-1H-beta-carboline] | ≥ 90%
7 | O=C(CN1CCc2c([nH]c3ccccc23)C1)N1CCN(C2CCOCC2)CC1 [Compound 40, 2-{2-Oxo-2-[4-(tetrahydro-2H-pyran-4-yl)piperazin-1-yl]ethyl}-2,3,4,9-tetrahydro-1H-beta-carboline] | ≥ 90%
8 | O=C(CN1CCc2c([nH]c3ccccc23)C1)N1CCN(C2CCCCC2)CC1 [Compound 41, 2-[2-(4-Cyclohexylpiperazin-1-yl)-2-oxoethyl]-2,3,4,9-tetrahydro-1H-beta-carboline] | ≥ 90%
9 | CCN1CCN(C(=O)CN2CCc3c([nH]c4ccccc34)C2)CC1 [Compound 42, 2-[2-(4-Ethylpiperazin-1-yl)-2-oxoethyl]-2,3,4,9-tetrahydro-1H-beta-carboline] | ≥ 90%
10 | CN1CCC(N(C)C(=O)CN2CCc3c([nH]c4ccccc34)C2)CC1 [Compound 43] | ≥ 90%
11 | CCCN1CCN(C(=O)CN2CCc3c([nH]c4ccccc34)C2)CC1 [Compound 44, 2-[2-(4-propylpiperazin-1-yl)-2-oxoethyl]-2,3,4,9-tetrahydro-1H-beta-carboline] | ≥ 90%
12 | O=C(CN1CCc2c([nH]c3ccccc23)C1)N1CCN(C2CCCC2)CC1 [Compound 45, 2-[2-(4-Cyclopentylpiperazin-1-yl)-2-oxoethyl]-2,3,4,9-tetrahydro-1H-beta-carboline] | ≥ 90%
13 | CCN(CC)C1CCN(C(=O)CN2CCc3c([nH]c4ccccc34)C2)CC1 [Compound 46, N,N-Diethyl-1-(1,3,4,9-tetrahydro-2H-beta-carbolin-2-ylacetyl)piperidin-4-amine] | ≥ 90%
14 | CCCCN1CCCN(C(=O)CN2CCc3c([nH]c4ccccc34)C2)CC1 [Compound 47, 2-[2-(4-Butyl-1,4-diazepan-1-yl)-2-oxoethyl]-2,3,4,9-tetrahydro-1H-beta-carboline] | ≥ 90%
15 | CCCCN1CCN(C(=O)CN2CCc3c([nH]c4ccccc34)C2)CC1 [Compound 48, 2-[2-(4-Butylpiperazin-1-yl)-2-oxoethyl]-2,3,4,9-tetrahydro-1H-beta-carboline] | ≥ 90%
16 | CCN(CC)C1CCN(C(=O)CN2CCc3c([nH]c4ccccc34)C2)C1 (stereo not drawn) [Compound 49, N,N-Diethyl-1-(1,3,4,9-tetrahydro-2H-beta-carbolin-2-ylacetyl)pyrrolidin-3-amine] | ≥ 90%
17 | CC(C)CN1CCN(C(=O)CN2CCc3c([nH]c4ccccc34)C2)CC1 [Compound 50, 2-[2-(4-Isobutylpiperazin-1-yl)-2-oxoethyl]-2,3,4,9-tetrahydro-1H-beta-carboline] | ≥ 90%
18 | CCCN(CC1CC1)C1CCN(C(=O)CN2CCc3c([nH]c4ccccc34)C2)CC1 [Compound 51, N-(Cyclopropylmethyl)-N-propyl-1-(1,3,4,9-tetrahydro-2H-beta-carbolin-2-ylacetyl)piperidin-4-amine] | ≥ 90%
19 | O=C(CN1CCc2c([nH]c3ccccc23)C1)N1CCC(N2CCCC2)CC1 [Compound 52, 2-[2-Oxo-2-(4-pyrrolidin-1-ylpiperidin-1-yl)ethyl]-2,3,4,9-tetrahydro-1H-beta-carboline] | ≥ 90%
20 | O=C(CN1CCc2c([nH]c3ccccc23)C1)N1CCC(N2CCCCC2)CC1 [Compound 53, 2-[2-(1,4′-Bipiperidin-1′-yl)-2-oxoethyl]-2,3,4,9-tetrahydro-1H-beta-carboline] | ≥ 90%
21 | COCCN(C(=O)CN1CCc2c([nH]c3ccccc23)C1)C1CCN(C)CC1 [Compound 54, N-(2-Methoxyethyl)-N-(1-methylpiperidin-4-yl)-2-(1,3,4,9-tetrahydro-2H-beta-carbolin-2-yl)acetamide] | ≥ 90%
22 | O=C(CN1CCc2c([nH]c3ccccc23)C1)N1CCN(CCCN2CCCC2)CC1 [Compound 55, 2-{2-Oxo-2-[4-(3-pyrrolidin-1-ylpropyl)piperazin-1-yl]ethyl}-2,3,4,9-tetrahydro-1H-beta-carboline] | ≥ 90%
23 | O=C(CN1CCc2c([nH]c3ccccc23)C1)N1CCN(CCN2CCCCC2)CC1 [Compound 56, 2-{2-Oxo-2-[4-(2-piperidin-1-ylethyl)piperazin-1-yl]ethyl}-2,3,4,9-tetrahydro-1H-beta-carboline] | ≥ 90%
24 | O=C(CN1CCc2c([nH]c3ccccc23)C1)N1CCN(CCCN2CCCCC2)CC1 [Compound 57, 2-{2-Oxo-2-[4-(3-piperidin-1-ylpropyl)piperazin-1-yl]ethyl}-2,3,4,9-tetrahydro-1H-beta-carboline] | ≥ 90%
25 | O=C(CN1CCc2c([nH]c3ccccc23)C1)N1CCN(CCN2CCCC2)CC1 [Compound 58, 2-{2-Oxo-2-[4-(2-pyrrolidin-1-ylethyl)piperazin-1-yl]ethyl}-2,3,4,9-tetrahydro-1H-beta-carboline] | ≥ 90%
26 | CC(c1ccccc1)N1CCN(C(=O)CN2CCc3c([nH]c4ccccc34)C2)CC1 (stereo not drawn) [Compound 59, 2-{2-Oxo-2-[4-(1-phenylethyl)piperazin-1-yl]ethyl}-2,3,4,9-tetrahydro-1H-beta-carboline] | ≥ 90%
27 | CCCN(C(=O)CN1CCc2c([nH]c3ccccc23)C1)C1CCN(C)CC1 [Compound 60, N-(1-Methylpiperidin-4-yl)-N-propyl-2-(1,3,4,9-tetrahydro-2H-beta-carbolin-2-yl)acetamide] | ≥ 90%
28 | CN(C)CCCN(C(=O)CN1CCc2c([nH]c3ccccc23)C1)C1CCN(C)CC1 [Compound 61, N-[3-(Dimethylamino)propyl]-N-(1-methylpiperidin-4-yl)-2-(1,3,4,9-tetrahydro-2H-beta-carbolin-2-yl)acetamide] | ≥ 90%
29 | CCN(C(=O)CN1CCc2c([nH]c3ccccc23)C1)C1CCN(C)CC1 [Compound 62, N-(1-Methylpiperidin-4-yl)-N-ethyl-2-(1,3,4,9-tetrahydro-2H-beta-carbolin-2-yl)acetamide] | ≥ 90%
30 | CN(CCN1CCCC1)C(=O)CN1CCc2c([nH]c3ccccc23)C1 [Compound 63] | ≥ 90%
